{
  "source": "patent EP1818063A1",
  "about": "“MEDICINE FOR TREATMENT OF DISEASE CAUSED BY HYPERSTIMULATORY CYTOTOXICITY AND THERAPEUTIC METHOD” (Japan Science and Technology Agency, priority 2004, dated 2006)",
  "assay_type_in_all_cases": "cell-based, mouse",
  "key": {"[1]": {"tested_on": "primary cultured cerebral cortical neurons", "test": "Varicosity formation (neuronal swelling) during excitotoxic NMDA stimulation", "procedure": "(§1) In order to access effects of volume-sensitive Cl- channel blocker on neuronal swelling or necrosis caused by hyperexcitation, primary cultures of cerebral cortical neurons isolated from fetuses removed from mice on day 16 of pregnancy were used. The primary cultured cerebral cortical neurons were cultured in a 5% CO2 incubator at 37°C, using Dulbecco's medium supplemented with 10% fetal bovine serum, streptomycin, and penicillin. To visualize dendrites, the cultured cerebral cortical neurons were transfected with EGFP gene on day 3 of culture, using a […] phosphate method. As an excitotoxic stimulant, Earle's Balanced Salt Solution (EBSS; commercially available as GIBCO#14155-063) was used that contained 30 µM N-methyl-D-aspartate (NMDA) and 30 µM glycine, supplemented with 2 mM CaCl2 and 0.5 mM MgCl2. To confirm activation of volume-sensitive Cl- channel, an experiment was conducted using a perforated-vesicle patch-clamp technique. After forming a gigaohm seal on the membrane of the varicosities exposed to excitotoxic stimulation, recording electrodes were raised to record currents from a single varicosity patch membrane. The intracellular and extracellular solutions used for the patch-clamp experiment were composed of the following. Extracellular solution: 124 mM N-methyl-D-glucamine (NMDG), 124 mM HCl, 20 mM TEA-Cl, 4 mM MgCl2, 0.33 mM NaH2PO4, 0.5 mM EGTA, 10 mM 2-[4-(2-hydroxyethyl)-1-piperazinyl] ethanesulfonic acid (HEPES), 2 mM 4-aminopyridine (4-AP), 5.5 mM glucose, 270mOsm, pH7.4. Intracellular solution: 145 mM KCl, 10 mM HEPES, 1 mM EGTA, 1 mM MgCl2, 0.3 mg/ml nystatin, 300mOsm, pH 7.4.\nNeuronal swelling was assessed as a proportion of varicosity-forming cells in the total number of neurons. After 20-minute excitotoxic stimulation, the cells were fixed with 4% paraformaldehyde, and the number of cells in each cell group was counted with a fluorescent microscope.\nFigure 7A is micrographs showing excitotoxic swelling of neurons induced by glutamate receptor agonist (30 µM NMDA). Primary cultured cerebral cortical neurons were visualized through EGFP expression. […] Figure 7B represents inhibitory action of Cl- channel blocker on varicosity formation. In the Figure, asterisk indicates a level of significant difference (p<0.05) from data on NMDA (before application of blocker)."}, "[2]": {"tested_on": "primary cultured cerebral cortical neurons", "test": "Necrotic neuronal cell death by PI staining after NMDA exposure", "procedure": "as §1\n(§2) Necrotic neuronal cell death was assessed by PI staining in which the nuclei are stained with a propidium iodide (PI) dye that enters the cells through damaged portions of the plasma membrane, or by measuring the level of extracellular lactate dehydrogenase (LDH) released from dead cells."}, "[3]": {"tested_on": "primary cultured cerebral cortical neurons", "test": "Necrotic neuronal cell death by LDH release after NMDA exposure", "procedure": "as §1, §2"}, "[4]": {"tested_on": "volume-sensitive Cl- channel", "test": "Whole-cell patch-clamp of current activated by hyposmotic stimulation", "conditions": "primary cultured cerebral cortical neurons", "procedure": "The cerebral cortex of fetuses removed from mice on day 16 of pregnancy was plated on cover-glass slips after digestion with papain. To prevent growth of glias and other proliferative cells, the cultures were supplemented with AraC (4 µM) 2 days after plating and a neuron-rich (>95%) culture system was prepared. A whole-cell patch-clamp technique was applied to primary cultures of cerebral cortical neurons (5-8 days after incubation). The intracellular and extracellular solutions used for the patch-clamp experiments were composed of the following. Intracellular solution (300mOsm, pH 7.4): 24 mM NMDG-C1, 100 mM NMDG-aspartate, 2 mM MgCl2, 5 mM Na2ATP, 0.3 mMNa3 GTP, 1 mM EGTA, 10 mM HEPES. […] Osmolality was adjusted by adding mannitol. Current activation was observed overtime by applying a potential of ±60 mV (500 ms duration, every 15 s) from a holding potential of -40 mV. To observe current kinetics, step pulses from -100 mV to +100 mV in 20 mV increments were applied (0.5 s duration) and current response was observed. The recordings were plotted in a current-voltage curve."}, "[5]": {"tested_on": "cerebral cortical neurons", "test": "Volume regulation (recovery from swelling) under hypotonic conditions, soma cross-sectional area by two-photon microscopy", "conditions": "80 µM; hyposmotic solution 200mOsm", "method": "Primary cultured neurons on day 5-8 of culture were loaded with calcein-AM to visualize the cells, and X-Y cross sectional images were captured over time with a two-photon laser microscope. Cell size was assessed based on changes in cross sectional area of the soma. An area ratio at each time point was calculated and plotted on a graph, with the area at the start of experiment given as 1 (Figure 2B). The solution used for the experiment had the following composition: 90 mM NaCl, 2.5 mM KCl, 5 mM HEPES, 2 mM MgCl2, 2 mM CaCl2, and 10 mM glucose."}, "[6]": {"tested_on": "EGFP-transfected primary cultured cerebral cortical neurons", "test": "Recovery from varicosities after removal of excitotoxic (NMDA) stimulation", "conditions": "60 minutes after 20-minute 30 µM NMDA stimulation; concentration not given", "procedure": "Primary cultured cerebral cortical neurons were transfected on day 3 of culture with a plasmid containing green fluorescent protein EGFP gene, using a […] phosphate method. […] Cells on day 2-6 of transfection were used for the experiment.\nThe cells were subjected to an excitotoxic stimulant by 20-minute exposure to low-magnesium HEPES buffer (composition: 142 mM NaCl, 2.5 mM KCl, 0.5 mM EGTA, 0.5 mM MgCl2, 0.33 mM NaH2PO4, 10 mM HEPES, 5.5 mM glucose, 0.03 mM glycine) containing NMDA (30 µM). After stimulation, the cells were washed three times with normal HEPES buffer (composition: 140 mM NaCl, 2.5 mM KCl, 2 mM CaCl2, 2 mM MgCl2, 10 mM HEPES, 5.5 mM glucose, 35 mM mannitol). The cells were then incubated at 37°C in the same buffer, and fixed with 4% paraformaldehyde at different time points (0, 15, 30, 60 min).\nAs in Example 4, EGFP-transfected primary cultured cerebral cortical neurons were used. According to the procedure of Example 4, the cells were subjected to excitotoxic stimulation, and incubated with normal HEPES buffer supplemented with various kinds of medicines. After 60 minutes, the cells were fixed with 4% paraformaldehyde, and the number of varicosity-bearing cells was counted with a fluorescent microscope as a percentage of the total number of counted neurons."}, "[7]": {"tested_on": "volume-sensitive Cl- channel", "test": "Perforated-vesicle patch-clamp of single-channel currents on the varicosity membrane", "procedure": "In order to access effects of volume-sensitive Cl- channel blocker on neuronal swelling or necrosis caused by hyperexcitation, primary cultures of cerebral cortical neurons isolated from fetuses removed from mice on day 16 of pregnancy were used. The primary cultured cerebral cortical neurons were cultured in a 5% CO2 incubator at 37°C, using Dulbecco's medium supplemented with 10% fetal bovine serum, streptomycin, and penicillin. To visualize dendrites, the cultured cerebral cortical neurons were transfected with EGFP gene on day 3 of culture, using a […] phosphate method. As an excitotoxic stimulant, Earle's Balanced Salt Solution (EBSS; commercially available as GIBCO#14155-063) was used that contained 30 µM N-methyl-D-aspartate (NMDA) and 30 µM glycine, supplemented with 2 mM CaCl2 and 0.5 mM MgCl2. To confirm activation of volume-sensitive Cl- channel, an experiment was conducted using a perforated-vesicle patch-clamp technique. […]\nAfter forming a gigaohm seal on the membrane of varicosities formed by excitotoxic stimulation (Figure 8A), the recording electrodes were lifted up to excise a single varicosity, with which recordings of volume-sensitive Cl- currents were made (Figure 8B). […] These properties of the recorded currents coincided with those of the volume-sensitive Cl- channel."}, "[8]": {"conditions": "40 µM co-applied with NMDA for 3 hours"}, "[9]": {"conditions": "100 µM during 20-minute 30 µM NMDA stimulation"}, "[10]": {"conditions": "100 µM co-applied with NMDA for 3 hours"}},
  "note": "Like-named read-outs stand apart in the source and are kept apart here.",
  "data": [
    {"compound": "CN1CCc2cc3c(cc2[C@H]1[C@@H]1OC(=O)c2c1ccc1c2OCO1)OCO3", "note": "[bicuculline]", "values": [
      {"measurement": "number of varicosity-forming neurons", "setting": "[1]", "result": "no significant inhibiting effects"},
      {"measurement": "number of PI positive cells", "setting": "[2]", "result": "no significant inhibiting effects"},
      {"measurement": "level of LDH release", "setting": "[3]", "result": "No inhibiting effects"}
    ]},
    {"compound": "O=C(O)c1cc([N+](=O)[O-])ccc1NCCCc1ccccc1", "note": "[NPPB]", "values": [
      {"measurement": "inhibition of current activated by hyposmotic stimulation", "setting": "[4]; 80 µM", "result": "inhibited"},
      {"measurement": "volume regulation", "setting": "[5]", "result": "inhibited"},
      {"measurement": "Recovery from varicosities", "setting": "[6]", "result": "significantly inhibited"},
      {"measurement": "number of varicosity-forming neurons", "setting": "[1]; 40 µM during 20-minute 30 µM NMDA stimulation", "result": "decreased significantly"},
      {"measurement": "single-channel events observed on the varicosity", "setting": "[7]; 80 µM, 3 minutes after application", "result": "blocked"},
      {"measurement": "blocking effect after removal", "setting": "[7]; 3 minutes after removal of 80 µM", "result": "reversible"},
      {"measurement": "number of PI positive cells", "setting": "[2]; [8]", "result": "decreased significantly"},
      {"measurement": "level of LDH release", "setting": "[3]; [8]", "result": "significantly inhibited"}
    ]},
    {"compound": "picrotoxin", "values": [
      {"measurement": "number of varicosity-forming neurons", "setting": "[1]; [9]", "result": "no significant inhibiting effects"},
      {"measurement": "number of PI positive cells", "setting": "[2]; [10]", "result": "no significant inhibiting effects"},
      {"measurement": "level of LDH release", "setting": "[3]; [10]", "result": "No inhibiting effects"}
    ]},
    {"compound": "O=C(CCc1ccc(O)cc1)c1c(O)cc(O)cc1O", "note": "[phloretin]", "values": [
      {"measurement": "inhibition of current activated by hyposmotic stimulation", "setting": "[4]; 100 µM", "result": "inhibited"},
      {"measurement": "Recovery from varicosities", "setting": "[6]", "result": "significantly inhibited"},
      {"measurement": "number of varicosity-forming neurons", "setting": "[1]; [9]", "result": "decreased significantly"},
      {"measurement": "number of PI positive cells", "setting": "[2]; [10]", "result": "decreased significantly"},
      {"measurement": "level of LDH release", "setting": "[3]; [10]", "result": "significantly inhibited"}
    ]},
    {"compound": "O=S(=O)(O)c1cc(N=C=S)ccc1C=Cc1ccc(N=C=S)cc1S(=O)(=O)O", "note": "[DIDS]", "values": [
      {"measurement": "inhibition of current activated by hyposmotic stimulation", "setting": "[4]; 400 µM", "result": "inhibited"}
    ]}
  ]
}
